Like-named read-outs stand apart in the source and are kept apart here.
Legend:
Assay type in all cases: biochemical
JAK3 = target: T1, JAK3 (Homo sapiens, UniProt P52333); assay: Inhibition of a panel of kinases, in vitro HotSpot kinase assay: JAK3; conditions: read-out: IC50 JAK3
T1 sequence (P52333 1-1124): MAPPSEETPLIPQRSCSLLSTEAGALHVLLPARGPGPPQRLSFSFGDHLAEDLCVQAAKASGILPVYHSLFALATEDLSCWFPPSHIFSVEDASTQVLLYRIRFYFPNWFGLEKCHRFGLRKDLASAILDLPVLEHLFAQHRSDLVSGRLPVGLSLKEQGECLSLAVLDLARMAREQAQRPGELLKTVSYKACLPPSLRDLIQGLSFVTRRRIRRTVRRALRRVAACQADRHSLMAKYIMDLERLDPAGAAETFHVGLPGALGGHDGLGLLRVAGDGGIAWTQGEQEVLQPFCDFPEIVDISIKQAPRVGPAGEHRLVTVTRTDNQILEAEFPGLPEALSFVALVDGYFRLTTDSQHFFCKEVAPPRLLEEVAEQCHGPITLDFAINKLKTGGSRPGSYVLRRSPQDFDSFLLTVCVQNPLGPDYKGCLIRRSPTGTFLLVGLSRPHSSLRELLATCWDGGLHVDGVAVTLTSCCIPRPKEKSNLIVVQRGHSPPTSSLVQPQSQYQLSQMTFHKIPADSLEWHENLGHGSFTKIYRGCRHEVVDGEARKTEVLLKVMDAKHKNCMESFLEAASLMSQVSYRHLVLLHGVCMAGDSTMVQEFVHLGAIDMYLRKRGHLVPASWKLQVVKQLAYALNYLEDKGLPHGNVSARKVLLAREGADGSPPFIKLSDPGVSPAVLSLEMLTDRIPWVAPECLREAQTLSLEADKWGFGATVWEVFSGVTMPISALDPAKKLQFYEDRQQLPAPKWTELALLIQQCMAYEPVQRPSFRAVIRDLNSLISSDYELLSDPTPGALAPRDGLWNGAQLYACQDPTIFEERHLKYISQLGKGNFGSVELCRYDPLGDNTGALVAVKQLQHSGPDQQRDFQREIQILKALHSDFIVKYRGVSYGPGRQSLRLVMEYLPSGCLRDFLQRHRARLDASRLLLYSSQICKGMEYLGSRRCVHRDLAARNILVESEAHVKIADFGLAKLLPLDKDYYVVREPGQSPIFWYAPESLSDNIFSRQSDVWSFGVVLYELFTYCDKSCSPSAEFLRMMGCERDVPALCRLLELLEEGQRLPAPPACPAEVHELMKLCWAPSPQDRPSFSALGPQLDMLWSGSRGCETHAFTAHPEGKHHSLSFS

LCK = LCK (Homo sapiens, UniProt P06239); assay: Inhibition of a panel of kinases, in vitro HotSpot kinase assay: LCK; conditions: read-out: IC50 LCK
Chain of LCK (P06239 whole entry): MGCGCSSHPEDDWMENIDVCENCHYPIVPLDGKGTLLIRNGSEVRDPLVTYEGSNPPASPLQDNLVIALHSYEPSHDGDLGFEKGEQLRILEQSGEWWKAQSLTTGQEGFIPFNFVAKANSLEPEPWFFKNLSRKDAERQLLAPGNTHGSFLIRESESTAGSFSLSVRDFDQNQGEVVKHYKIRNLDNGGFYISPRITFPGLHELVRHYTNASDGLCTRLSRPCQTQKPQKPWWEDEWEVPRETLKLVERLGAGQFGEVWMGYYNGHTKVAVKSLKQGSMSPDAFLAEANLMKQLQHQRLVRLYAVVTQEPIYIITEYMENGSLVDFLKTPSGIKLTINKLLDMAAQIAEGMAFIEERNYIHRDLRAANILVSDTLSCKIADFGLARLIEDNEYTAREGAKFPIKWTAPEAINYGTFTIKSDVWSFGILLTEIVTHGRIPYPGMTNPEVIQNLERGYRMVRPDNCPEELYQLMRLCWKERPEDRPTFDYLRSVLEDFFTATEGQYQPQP

EGFR = EGFR (Homo sapiens, UniProt P00533); assay: Inhibition of a panel of kinases, in vitro HotSpot kinase assay: EGFR
Chain of EGFR (P00533 25-1210): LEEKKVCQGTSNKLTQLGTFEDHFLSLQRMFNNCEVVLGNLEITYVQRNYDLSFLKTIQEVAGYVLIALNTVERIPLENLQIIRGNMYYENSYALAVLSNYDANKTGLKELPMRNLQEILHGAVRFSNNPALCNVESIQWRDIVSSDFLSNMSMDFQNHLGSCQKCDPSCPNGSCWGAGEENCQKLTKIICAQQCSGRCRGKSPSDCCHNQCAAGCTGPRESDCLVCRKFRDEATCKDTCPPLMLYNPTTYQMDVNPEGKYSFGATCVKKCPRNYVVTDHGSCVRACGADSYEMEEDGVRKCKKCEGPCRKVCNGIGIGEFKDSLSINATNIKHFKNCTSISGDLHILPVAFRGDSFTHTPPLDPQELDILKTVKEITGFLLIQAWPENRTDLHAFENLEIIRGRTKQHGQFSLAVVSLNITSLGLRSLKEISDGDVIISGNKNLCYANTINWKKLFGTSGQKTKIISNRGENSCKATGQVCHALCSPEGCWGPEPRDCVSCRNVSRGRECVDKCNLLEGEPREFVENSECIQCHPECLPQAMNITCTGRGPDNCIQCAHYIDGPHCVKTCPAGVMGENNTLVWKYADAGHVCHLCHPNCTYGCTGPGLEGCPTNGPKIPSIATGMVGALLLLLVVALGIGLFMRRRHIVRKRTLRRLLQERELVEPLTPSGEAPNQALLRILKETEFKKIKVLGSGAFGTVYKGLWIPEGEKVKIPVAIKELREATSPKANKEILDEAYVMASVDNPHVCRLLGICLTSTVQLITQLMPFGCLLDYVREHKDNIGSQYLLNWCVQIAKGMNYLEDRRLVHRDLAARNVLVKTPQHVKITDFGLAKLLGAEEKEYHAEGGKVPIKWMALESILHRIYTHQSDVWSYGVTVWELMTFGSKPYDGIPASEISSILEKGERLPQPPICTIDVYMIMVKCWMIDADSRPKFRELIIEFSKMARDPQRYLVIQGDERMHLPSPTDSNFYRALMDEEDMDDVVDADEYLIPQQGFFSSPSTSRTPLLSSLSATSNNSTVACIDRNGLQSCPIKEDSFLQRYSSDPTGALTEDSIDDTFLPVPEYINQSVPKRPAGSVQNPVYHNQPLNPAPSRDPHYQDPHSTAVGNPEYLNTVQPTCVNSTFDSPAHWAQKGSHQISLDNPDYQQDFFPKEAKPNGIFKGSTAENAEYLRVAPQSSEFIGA
Protocol: The degree of inhibition of a panel of kinases is determined using the in vitro HotSpot kinase assay (purified enzymes, ^33P-ATP, an appropriate substrate and 1 μM ATP).

[1] = D-compounds panel data, 1 μM ATP

Row | Compound | IC50 (JAK3; [1]) [µM] | IC50 (LCK; [1]) [µM] | IC50 (EGFR; [1]) [µM] | IC50 (JAK3; E compounds, Table 17) [µM] | IC50 (LCK; E compounds, Table 17) [µM] | IC50 (EGFR; E compounds, Table 17) [µM]
1 | C[C@@H]1[C@H](NC(=O)c2ccc(N(C)C)cn2)CCCN1c1cnc(C(N)=O)c(Nc2cnn(C)c2)n1 [Example D-84, 5-[(2R,3R)-3-[5-(dimethylamino)pyridine-2-amido]-2-methylpiperidin-1-yl]-3-[(1-methyl-1H-pyrazol-4-yl)amino]pyrazine-2-carboxamide] | > 10 | 0.1 to 1 | 1 to 10 |  |  | 
2 | C[C@@H]1[C@H](NC(=O)c2ccc(C3CC3)cc2)CCCN1c1cnc(C(N)=O)c(Nc2ccc(N3CCN(C)CC3)c(C(F)(F)F)c2)n1 [Example D-92, 5-[(2R,3R)-3-(4-cyclopropylbenzamido)-2-methylpiperidin-1-yl]-3-{[4-(4-methylpiperazin-1-yl)-3-(trifluoromethyl)phenyl]amino}pyrazine-2-carboxamide] | > 10 | 0.1 to 1 | 1 to 10 |  |  | 
3 | C[C@@H]1[C@H](NC(=O)c2ccc(C3CC3)cc2)CCCN1c1cnc(C(N)=O)c(Nc2ccc(C3CCOCC3)cc2)n1 [Example D-317, 5-[(2R,3R)-3-(4-cyclopropylbenzamido)-2-methylpiperidin-1-yl]-3-{[4-(oxan-4-yl)phenyl]amino}pyrazine-2-carboxamide] | 1 to 10 | > 10 | > 10 |  |  | 
4 | C[C@@H]1[C@H](NC(=O)c2ccc(C3CC3)cc2)CCCN1c1cnc(C(N)=O)c(Nc2cnc(N3CCN(C)CC3)nc2)n1 [Example D-318, 5-[(2R,3R)-3-(4-cyclopropylbenzamido)-2-methylpiperidin-1-yl]-3-{[2-(4-methylpiperazin-1-yl)pyrimidin-5-yl]amino}pyrazine-2-carboxamide] | > 10 | 0.1 to 1 | > 10 |  |  | 
5 | C[C@@H]1[C@H](NC(=O)c2ccc(C3CC3)cc2)CCCN1c1cnc(C(N)=O)c(Nc2cnn(CC3CCOCC3)c2)n1 [Example D-319, 5-[(2R,3R)-3-(4-cyclopropylbenzamido)-2-methylpiperidin-1-yl]-3-{[1-(oxan-4-ylmethyl)-1H-pyrazol-4-yl]amino}pyrazine-2-carboxamide] | > 10 | 0.1 to 1 | 1 to 10 |  |  | 
6 | C[C@@H]1[C@H](NC(=O)c2ccc(C3CC3)cc2)CCCN1c1cnc(C(N)=O)c(Nc2ccc(N3CCC(C(=O)N(C)C)CC3)cc2)n1 [Example D-320, 5-[(2R,3R)-3-(4-cyclopropylbenzamido)-2-methylpiperidin-1-yl]-3-({4-[4-(dimethylcarbamoyl)piperidin-1-yl]phenyl}amino)pyrazine-2-carboxamide] | 1 to 10 | 0.01 to 0.1 | 0.1 to 1 |  |  | 
7 | C[C@@H]1[C@H](NC(=O)c2ccc(C3CC3)cc2)CCCN1c1cnc(C(N)=O)c(Nc2cnn(CC3CCC(F)(F)CC3)c2)n1 [Example D-321, 5-[(2R,3R)-3-(4-cyclopropylbenzamido)-2-methylpiperidin-1-yl]-3-({1-[(4,4-difluorocyclohexyl)methyl]-1H-pyrazol-4-yl}amino)pyrazine-2-carboxamide] | > 10 | 1 to 10 | > 10 |  |  | 
8 | C=CC(=O)N1CC[C@@H](N(C)c2cnc(C(N)=O)c(Nc3ccc(C4(C)CCN(C5CC5)CC4)cc3)n2)C1 [Example E-104, (R)-5-((1-acryloylpyrrolidin-3-yl)(methyl)amino)-3-(4-(1-cyclopropyl-4-methylpiperidin-4-yl)phenylammo)pyrazine-2-carboxamide] |  |  |  | < 0.01 | 0.01 to 0.1 | ≤ 0.01
9 | C=CC(=O)N1CC[C@@H](N(C)c2cnc(C(N)=O)c(Nc3ccc(C4(C)CCN(C5CCCC5)CC4)cc3)n2)C1 [Example E-106, (R)-5-((1-acryloylpyrrolidin-3-yl)(methyl)amino)-3-(4-(1-cyclopentyl-4-methylpiperidin-4-yl)phenylamino)pyrazine-2-carboxamide] |  |  |  | < 0.01 | 0.01 to 0.1 | ≤ 0.01

Now from value to molecule, other results behind:

Row | IC50 (JAK3; [1]) [µM] | IC50 (LCK; [1]) [µM] | IC50 (EGFR; [1]) [µM] | Compound | IC50 (JAK3; E compounds, Table 17) [µM] | IC50 (LCK; E compounds, Table 17) [µM] | IC50 (EGFR; E compounds, Table 17) [µM]
10 | 1 to 10 | 1 to 10 | > 10 | C[C@@H]1[C@H](NC(=O)c2ccc(C3CC3)cc2)CCCN1c1cnc(C(N)=O)c(Nc2ccc3nccn3c2)n1 [Example D-83, 5-[(2R,3R)-3-(4-cyclopropylbenzamido)-2-methylpiperidin-1-yl]-3-({imidazo[1,2-a]pyridin-6-yl}amino)pyrazine-2-carboxamide] |  |  | 
11 | 0.1 to 1 | 0.1 to 1 | 0.1 to 1 | C[C@@H]1[C@H](NC(=O)c2ccc(-c3ncccn3)cc2)CCCN1c1cnc(C(N)=O)c(Nc2cnn(C)c2)n1 [Example D-85, 3-[(1-methyl-1H-pyrazol-4-yl)amino]-5-[(2R,3R)-2-methyl-3-[4-(pyrimidin-2-yl)benzamido]piperidin-1-yl]pyrazine-2-carboxamide] |  |  | 
12 | 0.1 to 1 | 0.01 to 0.1 | 1 to 10 | C[C@@H]1[C@H](NC(=O)c2cnc(C3CC3)nc2)CCCN1c1cnc(C(N)=O)c(Nc2cnn(C)c2)n1 [Example D-86, 5-[(2R,3R)-3-(2-cyclopropylpyrimidine-5-amido)-2-methylpiperidin-1-yl]-3-[(1-methyl-1H-pyrazol-4-yl)amino]pyrazine-2-carboxamide] |  |  | 
13 | 0.1 to 1 | 0.1 to 1 | 0.1 to 1 | C[C@@H]1[C@H](NC(=O)c2ccc(C(F)(F)F)cn2)CCCN1c1cnc(C(N)=O)c(Nc2cnn(C)c2)n1 [Example D-87, 3-[(1-methyl-1H-pyrazol-4-yl)amino]-5-[(2R,3R)-2-methyl-3-[5-(trifluoromethyl)pyridine-2-amido]piperidin-1-yl]pyrazine-2-carboxamide] |  |  | 
14 | 1 to 10 | 0.1 to 1 | 1 to 10 | C[C@@H]1[C@H](NC(=O)c2ccc(C(C)(C)C#N)cc2)CCCN1c1cnc(C(N)=O)c(Nc2cnn(C)c2)n1 [Example D-88, 5-[(2R,3R)-3-[4-(1-cyano-1-methylethyl)benzamido]-2-methylpiperidin-1-yl]-3-[(1-methyl-1H-pyrazol-4-yl)amino]pyrazine-2-carboxamide] |  |  | 
15 | 0.1 to 1 | 0.01 to 0.1 | 0.1 to 1 | C[C@@H]1[C@H](NC(=O)c2ccc(C3CC3)cc2)CCCN1c1cnc(C(N)=O)c(Nc2ccc(OC3CCN(C)CC3)cc2)n1 [Example D-89] |  |  | 
16 | 1 to 10 | 0.1 to 1 | 1 to 10 | C[C@@H]1[C@H](NC(=O)C23CC(C2)C3)CCCN1c1cnc(C(N)=O)c(Nc2cnn(C)c2)n1 [Example D-90, 5-[(2R,3R)-3-{bicyclo[1.1.1]pentane-1-amido}-2-methylpiperidin-1-yl]-3-[(1-methyl-1H-pyrazol-4-yl)amino]pyrazine-2-carboxamide] |  |  | 
17 | 0.1 to 1 | 0.01 to 0.1 | 0.1 to 1 | C[C@@H]1[C@H](NC(=O)c2ccc(C(F)(F)F)nc2)CCCN1c1cnc(C(N)=O)c(Nc2cnn(C)c2)n1 [Example D-91, 3-[(1-methyl-1H-pyrazol-4-yl)amino]-5-[(2R,3R)-2-methyl-3-[6-(trifluoromethyl)pyridine-3-amido]piperidin-1-yl]pyrazine-2-carboxamide] |  |  | 
18 | 0.1 to 1 | 0.1 to 1 | 1 to 10 | C[C@@H]1[C@H](N2CCN(C)C2=O)CCCN1c1cnc(C(N)=O)c(Nc2cnn(C)c2)n1 [Example D-93, 3-[(1-methyl-1H-pyrazol-4-yl)amino]-5-[(2R,3R)-2-methyl-3-(3-methyl-2-oxoimidazolidin-1-yl)piperidin-1-yl]pyrazine-2-carboxamide] |  |  | 
19 | 0.1 to 1 | 0.1 to 1 | 1 to 10 | C[C@@H]1[C@H](NC(=O)c2ccc(C(C)(C)CO)cc2)CCCN1c1cnc(C(N)=O)c(Nc2cnn(C)c2)n1 [Example D-94, 5-[(2R,3R)-3-[4-(1-hydroxy-2-methylpropan-2-yl)benzamido]-2-methylpiperidin-1-yl]-3-[(1-methyl-1H-pyrazol-4-yl)amino]pyrazine-2-carboxamide] |  |  | 
20 | 1 to 10 | 0.01 to 0.1 | 0.1 to 1 | C[C@@H]1[C@H](NC(=O)c2ccc(C3CC3)cc2)CCCN1c1cnc(C(N)=O)c(Nc2ccc(CN3CCOCC3)cc2)n1 [Example D-316, 5-[(2R,3R)-3-(4-cyclopropylbenzamido)-2-methylpiperidin-1-yl]-3-{[4-(morpholin-4-ylmethyl)phenyl]amino}pyrazine-2-carboxamide] |  |  | 
